From ChEMBL document CHEMBL1122521, “Nucleic acid related compounds. 47. Synthesis and biological activities of pyrimidine and purine "acyclic" nucleoside analogues” (J Med Chem, 1984)
≈ marks a conversion by molar mass, not a printed value.

What was measured:
Type in all cases: functional
Human alphaherpesvirus 2 = assay: Concentration required to reduce cytopathogenicity of Herpes simplex virus type 2 (strain G) by 50% in primary rabbit kidney (PRK) cells
L1210 [1] = assay: Inhibitory concentration required to reduce [3H-methyl]-dThd C incorporation into cellular DNA by 50% in Murine Leukemia L1210 cells; details: Mus musculus, read-out: ID50 (the source's name)
Human alphaherpesvirus 1 = assay: Concentration required to reduce cytopathogenicity of Herpes simplex virus type 1 (strain KOS) by 50% in primary rabbit kidney (PRK) cells
[2] = Inhibitory concentration required to reduce 2-deoxyuridine ([3H-1'2']dUrd) incorporation into DNA of Primary Rabbit kidney (PRK) cell cultures; details: Oryctolagus cuniculus, read-out: ID50 (the source's name)
L1210 [3] = assay: Inhibitory concentration required to reduce cell growth of Murine Leukemia L1210 cells; details: Mus musculus, read-out: ID50 (the source's name)
[4] = Inhibitory concentration required to reduce incorporation of 2-deoxythymidine (dThd) into DNA of Primary Rabbit kidney (PRK) cell cultures; details: Oryctolagus cuniculus, read-out: ID50 (the source's name)
L1210 [5] = assay: Inhibitory concentration required to reduce [3H1',2']dUrd incorporation into cellular DNA by 50% in Murine Leukemia L1210 cells; details: Mus musculus, read-out: ID50 (the source's name)
[6] = Ratio of ID50 for dThd or dUrd incorporation to ID50 for HSV-1, HSV-2 or VV(whatever was lowest)
[7] = tested on: Vesicular stomatitis virus; assay: Concentration required to reduce cytopathogenicity of Vesicular stomatitis virus by 50% in primary rabbit kidney (PRK) cells
[8] = Inhibitory concentration required to reduce incorporation of 2-deoxyuridine (dUrd) into DNA of Primary Rabbit kidney (PRK) cell cultures; details: Oryctolagus cuniculus, read-out: ID50 (the source's name)
L1210 [9] = assay: Inhibitory concentration required to reduce [3H1',2']dUrd incorporation into cellular DNA by 50 %; details: Mus musculus, read-out: ID50 (the source's name)
L1210 [10] = assay: Inhibitory concentration required to reduce [14C-2]-dUrd incorporation into cellular DNA by 50% in Murine Leukemia L1210 cells; details: Mus musculus, read-out: ID50 (the source's name)

Compound	ID50 (Human alphaherpesvirus 2) [µg/mL]	IC50 (L1210 [1]) [µg/mL]	ID50 (Human alphaherpesvirus 1) [µg/mL]	IC50 [2] [µg/mL]	IC50 (L1210 [3]) [µg/mL]	IC50 [4] [µg/mL]	IC50 (L1210 [5]) [µg/mL]	Antiviral index [6]	ID50 [7] [µg/mL]	IC50 [8] [µg/mL]	IC50 (L1210 [9]) [µg/mL]	IC50 (L1210 [10]) [µg/mL]
OCCOCn1cnc2c(O)ncnc21	>400	> 1000	>400	> 100	> 1000	> 100	> 1000	–	–	–	–	–
Nc1nc2c(ncn2COCCO)c(=O)[nH]1 [ACYCLOVIR]	0.04 (≈ 0.178 µM)	367 (≈ 1630 µM)	0.05 (≈ 0.222 µM)	13 (≈ 57.7 µM)	13 (≈ 57.7 µM)	12 (≈ 53.3 µM)	50 (≈ 222 µM)	300	>400	–	–	–
CC(=O)OCCOCn1cnc2c(Cl)nc(Cl)nc21	>10	412 (≈ 1350 µM)	2 (≈ 6.55 µM)	–	12 (≈ 39.3 µM)	10 (≈ 32.8 µM)	98 (≈ 321 µM)	1	–	2 (≈ 6.55 µM)	–	–
CN(C)c1nc2c(=O)[nH]c(N)nc2n1COCCO	250 (≈ 932 µM)	> 500	30 (≈ 112 µM)	–	> 500	> 400	–	13	>400	> 400	> 500	–
Nc1nc2c(nc(Cl)n2COCCO)c(=O)[nH]1	>400	> 1000	70 (≈ 270 µM)	> 400	350 (≈ 1350 µM)	> 400	> 1000	> 6	–	–	–	–
O=c1[nH]c(=O)n([C@H]2C[C@H](O)[C@@H](CO)O2)cc1/C=C/Br [BRIVUDINE]	2 (≈ 6 µM)	–	0.007 (≈ 0.021 µM)	–	–	73 (≈ 219 µM)	–	3860	>400	27 (≈ 81 µM)	–	–
Nc1ncnc2c1ncn2COCCO	10 (≈ 47.8 µM)	> 1000	10 (≈ 47.8 µM)	–	19 (≈ 90.8 µM)	49 (≈ 234 µM)	> 1000	2.2	>400	22 (≈ 105 µM)	–	–
Nc1nc(O)c2nc(N3CCCCC3)n(COCCO)c2n1	150 (≈ 486 µM)	> 500	70 (≈ 227 µM)	–	> 500	250 (≈ 811 µM)	> 500	3.5	>400	333 (≈ 1080 µM)	–	–
Nc1nc2c(nc(Br)n2COCCO)c(=O)[nH]1	0.5 (≈ 1.64 µM)	> 500	0.5 (≈ 1.64 µM)	–	355 (≈ 1170 µM)	340 (≈ 1120 µM)	–	450	>400	225 (≈ 740 µM)	> 500	–
Nc1nc(Cl)c2ncn(COCCO)c2n1	20 (≈ 82.1 µM)	> 1000	2 (≈ 8.21 µM)	> 100	69 (≈ 283 µM)	50 (≈ 205 µM)	> 1000	25	>400	–	–	–
O=c1[nH]c(=O)n([C@H]2C[C@H](O)[C@@H](CO)O2)cc1I [IDOXURIDINE]	0.3 (≈ 0.847 µM)	4.3 (≈ 12.1 µM)	0.1 (≈ 0.282 µM)	–	61 (≈ 172 µM)	2 (≈ 5.65 µM)	–	3	>400	0.3 (≈ 0.847 µM)	–	0.82 (≈ 2.32 µM)
CN(C)c1ncnc2c1ncn2COCCO	>400	> 500	>400	–	> 500	400 (≈ 1690 µM)	> 500	< 0.9	–	> 350	–	–
Nc1ccn(COCCO)c(=O)n1	100 (≈ 540 µM)	> 1000	70 (≈ 378 µM)	–	675 (≈ 3650 µM)	> 400	> 1000	> 5	>400	> 400	–	–
CC(=O)OCCOCn1cnc2c(Cl)nc(N)nc21	20 (≈ 70 µM)	> 1000	20 (≈ 70 µM)	71 (≈ 249 µM)	91 (≈ 319 µM)	55 (≈ 193 µM)	> 1000	2.7	>400	–	–	–
Nc1nc2c(nc(O)n2COCCO)c(=O)[nH]1	25 (≈ 104 µM)	> 500	15 (≈ 62.2 µM)	≥ 100	> 500	48 (≈ 199 µM)	–	3.2	>400	–	> 500	–
O=c1[nH]c(=O)n([C@H]2C[C@H](O)[C@@H](CO)O2)cc1F [FLOXURIDINE]	–	80 (≈ 325 µM)	–	–	0.001 (≈ 0.00406 µM)	–	–	–	–	–	–	0.003 (≈ 0.0122 µM)
Nc1nc2c(nc(N)n2COCCO)c(=O)[nH]1	0.3 (≈ 1.25 µM)	500 (≈ 2080 µM)	0.7 (≈ 2.91 µM)	–	> 500	290 (≈ 1210 µM)	–	667	>100	200 (≈ 833 µM)	500 (≈ 2080 µM)	–
CNc1nc2c(=O)[nH]c(N)nc2n1COCCO	3 (≈ 11.8 µM)	> 500	7 (≈ 27.5 µM)	–	> 500	> 400	–	133	>400	> 400	> 500	–
Nc1nc2c(nc(I)n2COCCO)c(=O)[nH]1	0.4 (≈ 1.14 µM)	> 1000	0.4 (≈ 1.14 µM)	–	39 (≈ 111 µM)	≥ 350	–	625	>400	≥ 250	> 1000	–
CC(=O)OCCOCn1cnc2c(Cl)ncnc21	70 (≈ 259 µM)	475 (≈ 1750 µM)	70 (≈ 259 µM)	–	44 (≈ 163 µM)	60 (≈ 222 µM)	233 (≈ 861 µM)	3	>400	62 (≈ 229 µM)	–	–
Cc1nc2c(O)nc(N)nc2n1COCCO	0.5 (≈ 2.09 µM)	> 500	0.5 (≈ 2.09 µM)	–	323 (≈ 1350 µM)	> 400	> 500	> 800	>400	> 400	–	–
